# From US8796289B2 (AbbVie Inc., priority 2011, dated 2014)
# pKi: −log10 of the molar value.
# Target: GST-tagged-Wee1 kinase (Homo sapiens, UniProt P30291)
# Experiment: Wee1 time-resolved fluorescence equilibrium binding assay (displacement of Oregon Green-labeled ATP-competitive kinase probe)
# Protocol: Wee1 kinase was assayed using a time-resolved fluorescence equilibrium binding assay monitoring displacement of a rapidly reversible Oregon Green-labeled ATP-competitive kinase probe (N-(2-(2-(2-(4-(4-(5-chloro-4-(2-(1-hydroxycyclobutyl)thiazol-5-yl)-1H-pyrrolo[2,3-b]pyridin-2-yl)phenyl)piperazin-1-yl)ethoxy)ethoxy)ethyl)-2′,7′-difluoro-3′,6′-dihydroxy-3-oxo-3H-spiro[isobenzofuran-1,9′-xanthene]-5-carboxamide) by competitive Wee1 inhibitors.
# Chain of GST-tagged-Wee1 kinase (P30291 whole entry): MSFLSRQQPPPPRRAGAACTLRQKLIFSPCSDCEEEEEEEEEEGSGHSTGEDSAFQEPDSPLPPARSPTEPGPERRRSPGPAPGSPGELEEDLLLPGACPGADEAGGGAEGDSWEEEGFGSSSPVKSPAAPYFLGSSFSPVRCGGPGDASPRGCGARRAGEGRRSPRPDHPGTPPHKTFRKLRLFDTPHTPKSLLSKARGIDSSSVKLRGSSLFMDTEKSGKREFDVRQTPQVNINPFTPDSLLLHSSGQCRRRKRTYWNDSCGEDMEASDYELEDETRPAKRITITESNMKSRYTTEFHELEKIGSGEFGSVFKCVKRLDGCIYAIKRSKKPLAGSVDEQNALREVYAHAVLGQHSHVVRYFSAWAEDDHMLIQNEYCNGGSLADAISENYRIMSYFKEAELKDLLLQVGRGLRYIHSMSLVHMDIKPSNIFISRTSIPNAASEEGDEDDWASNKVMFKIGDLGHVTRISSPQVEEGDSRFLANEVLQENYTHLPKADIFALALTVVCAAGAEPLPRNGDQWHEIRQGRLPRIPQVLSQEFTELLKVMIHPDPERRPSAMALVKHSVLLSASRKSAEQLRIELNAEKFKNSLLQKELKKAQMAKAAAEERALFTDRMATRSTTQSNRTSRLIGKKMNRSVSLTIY
row,pKi,SMILES
1,8.70,"CN1CCN(c2ccc(Nc3ncc4c(=O)n(-c5ccccc5Cl)nc(-c5ccncn5)c4n3)cc2)CC1 [Example 178, 6-(2-chlorophenyl)-2-{[4-(4-methylpiperazin-1-yl)phenyl]amino}-8-(pyrimidin-4-yl)pyrimido[4,5-d]pyridazin-5(6H)-one]"
2,10.00,"CN1CCN(c2ccc(Nc3ncc4c(=O)n(-c5c(Cl)cccc5Cl)nc(-c5ccncn5)c4n3)cc2)CC1 [Example 179, 6-(2,6-dichlorophenyl)-2-{[4-(4-methylpiperazin-1-yl)phenyl]amino}-8-(pyrimidin-4-yl)pyrimido[4,5-d]pyridazin-5(6H)-one]"
3,8.70,"CN1CCN(c2ccc(Nc3ncc4c(=O)n(-c5c(Cl)cccc5Cl)nc(-c5cccc(N6CCCC6)n5)c4n3)cc2)CC1 [Example 180, 6-(2,6-dichlorophenyl)-2-{[4-(4-methylpiperazin-1-yl)phenyl]amino}-8-[6-(pyrrolidin-1-yl)pyridin-2-yl]pyrimido[4,5-d]pyridazin-5(6H)-on]"
4,8.22,"CN1CCN(c2ccc(Nc3ncc4c(=O)n(-c5ccccc5Cl)nc(-c5cccc(N6CCCC6)n5)c4n3)cc2)CC1 [Example 181, 6-(2-chlorophenyl)-2-{[4-(4-methylpiperazin-1-yl)phenyl]amino}-8-[6-(pyrrolidin-1-yl)pyridin-2-yl]pyrimido[4,5-d]pyridazin-5(6H)-one]"
5,7.92,"Cc1ccccc1-n1nc(-c2cccc(N3CCCC3)n2)c2nc(Nc3ccc(N4CCN(C)CC4)cc3)ncc2c1=O [Example 182, 6-(2-methylphenyl)-2-{[4-(4-methylpiperazin-1-yl)phenyl]amino}-8-[6-(pyrrolidin-1-yl)pyridin-2-yl]pyrimido[4,5-d]pyridazin-5(6H)-one]"
6,10.70,"CNCc1cccc(-c2nn(-c3c(Cl)cccc3Cl)c(=O)c3cnc(Nc4ccc(N5CCN(C)CC5)cc4)nc23)c1 [Example 183, 6-(2,6-dichlorophenyl)-8-{3-[(methylamino)methyl]phenyl}-2-{[4-(4-methylpiperazin-1-yl)phenyl]amino}pyrimido[4,5-d]pyridazin-5(6H)-one]"
7,10.52,"CN(C)Cc1cccc(-c2nn(-c3c(Cl)cccc3Cl)c(=O)c3cnc(Nc4ccc(N5CCN(C)CC5)cc4)nc23)c1 [Example 184, 6-(2,6-dichlorophenyl)-8-{3-[(dimethylamino)methyl]phenyl}-2-{[4-(4-methylpiperazin-1-yl)phenyl]amino}pyrimido[4,5-d]pyridazin-5(6H)-one]"
8,10.40,"CC(=O)c1cccc(-c2nn(-c3c(Cl)cccc3Cl)c(=O)c3cnc(Nc4ccc(N5CCN(C)CC5)cc4)nc23)c1 [Example 185, 8-(3-acetylphenyl)-6-(2,6-dichlorophenyl)-2-{[4-(4-methylpiperazin-1-yl)phenyl]amino}pyrimido[4,5-d]pyridazin-5(6H)-one]"
9,10.70,"CNC(C)c1cccc(-c2nn(-c3c(Cl)cccc3Cl)c(=O)c3cnc(Nc4ccc(N5CCN(C)CC5)cc4)nc23)c1 (centres unmarked) [Example 186, 6-(2,6-dichlorophenyl)-8-{3-[1-(methylamino)ethyl]phenyl}-2-{[4-(4-methylpiperazin-1-yl)phenyl]amino}pyrimido[4,5-d]pyridazin-5(6H)-one]"
10,5.74,"CN1CCN(c2ccc(Nc3ncc4c(=O)n(C)nc(C5CC(F)(F)C5)c4n3)cc2)CC1 [Example 187, 8-(3,3-difluorocyclobutyl)-6-methyl-2-{[4-(4-methylpiperazin-1-yl)phenyl]amino}pyrimido[4,5-d]pyridazin-5(6H)-one]"
11,9.00,"COC(=O)c1cccc(-c2nn(-c3c(Cl)cccc3Cl)c(=O)c3cnc(Nc4ccc(N5CCN(C)CC5)cc4)nc23)c1 [Example 188, methyl 3-[6-(2,6-dichlorophenyl)-2-{[4-(4-methylpiperazin-1-yl)phenyl]amino}-5-oxo-5,6-dihydropyrimido[4,5-d]pyridazin-8-yl]benzoate]"
12,10.70,"CN1CCN(c2ccc(Nc3ncc4c(=O)n(-c5c(Cl)cccc5Cl)nc(-c5cccc(C(=O)N(C)C)c5)c4n3)cc2)CC1 [Example 189, 3-[6-(2,6-dichlorophenyl)-2-{[4-(4-methylpiperazin-1-yl)phenyl]amino}-5-oxo-5,6-dihydropyrimido[4,5-d]pyridazin-8-yl]-N,N-dimethylbenzamide]"

# Continued, molecule first:
row,SMILES,pKi
1,"CN1CCN(c2ccc(Nc3ncc4c(=O)n(-c5c(Cl)cccc5Cl)nc(-c5cccc(C(C)(C)O)n5)c4n3)cc2)CC1 [Example 160, 6-(2,6-dichlorophenyl)-8-[6-(2-hydroxypropan-2-yl)pyridin-2-yl]-2-{[4-(4-methylpiperazin-1-yl)phenyl]amino}pyrimido[4,5-d]pyridazin-5(6H)-one]",10.00
2,"C=CCn1nc(-c2cccs2)c2nc(Nc3ccc(N4CCN(C(C)C)CC4)c(OC)c3)ncc2c1=O [Example 161, 6-allyl-2-{[4-(4-isopropylpiperazin-1-yl)-3-methoxyphenyl]amino}-8-(2-thienyl)pyrimido[4,5-d]pyridazin-5(6H)-one]",8.52
3,"C=CCn1nc(-c2cccs2)c2nc(Nc3ccc4c(c3)CN(C)CC4)ncc2c1=O [Example 162, 6-allyl-2-[(2-methyl-1,2,3,4-tetrahydroisoquinolin-7-yl)amino]-8-(2-thienyl)pyrimido[4,5-d]pyridazin-5(6H)-one]",8.40
4,"C=CCn1nc(-c2cccs2)c2nc(Nc3ccc(N4CCCN(C(C)C)CC4)c(C)c3)ncc2c1=O [Example 163, 6-allyl-2-{[4-(4-isopropyl-1,4-diazepan-1-yl)-3-methylphenyl]amino}-8-(2-thienyl)pyrimido[4,5-d]pyridazin-5(6H)-one]",8.40
5,"Cc1ccccc1-n1nc(-c2cccs2)c2nc(Nc3ccc4c(c3)CN(C)CC4)ncc2c1=O [Example 164, 6-(2-methylphenyl)-2-[(2-methyl-1,2,3,4-tetrahydroisoquinolin-7-yl)amino]-8-(2-thienyl)pyrimido[4,5-d]pyridazin-5(6H)-one]",9.30
6,"O=c1c2cnc(Nc3ccc(S(=O)(=O)N4CCOCC4)cc3)nc2c(-c2cccs2)nn1-c1ccccc1Cl [Example 165, 6-(2-chlorophenyl)-2-{[4-(morpholin-4-ylsulfonyl)phenyl]amino}-8-(2-thienyl)pyrimido[4,5-d]pyridazin-5(6H)-one]",< 5.50
7,"CN1CCc2ccc(Nc3ncc4c(=O)n(-c5ccccc5Cl)nc(-c5cccs5)c4n3)cc2C1 [Example 167, 6-(2-chlorophenyl)-2-[(2-methyl-1,2,3,4-tetrahydroisoquinolin-7-yl)amino]-8-(2-thienyl)pyrimido[4,5-d]pyridazin-5(6H)-one]",9.40
8,"O=C1CCCN1c1ccc(Nc2ncc3c(=O)n(-c4ccccc4Cl)nc(-c4ccccc4)c3n2)cc1 [Example 168, 6-(2-chlorophenyl)-2-{[4-(2-oxopyrrolidin-1-yl)phenyl]amino}-8-phenylpyrimido[4,5-d]pyridazin-5(6H)-one]",8.70
9,"C=CCn1nc(-c2ccccc2)c2nc(Nc3ccc(N4CCN(C(C)C)CC4)c(C)c3)ncc2c1=O [Example 169, 6-allyl-2-{[4-(4-isopropylpiperazin-1-yl)-3-methylphenyl]amino}-8-phenylpyrimido[4,5-d]pyridazin-5(6H)-one]",8.70
10,"Cc1cc(Nc2ncc3c(=O)n(-c4ccccc4C)nc(-c4ccccc4)c3n2)ccc1N1CCN(C(C)C)CC1 [Example 170, 2-{[4-(4-isopropylpiperazin-1-yl)-3-methylphenyl]amino}-6-(2-methylphenyl)-8-phenylpyrimido[4,5-d]pyridazin-5(6H)-one]",9.15
11,"Cc1ccccc1-n1nc(-c2ccccc2)c2nc(Nc3ccc4c(c3)CN(C)CC4)ncc2c1=O [Example 171, 6-(2-methylphenyl)-2-[(2-methyl-1,2,3,4-tetrahydroisoquinolin-7-yl)amino]-8-phenylpyrimido[4,5-d]pyridazin-5(6H)-one]",9.22
12,"C=CCn1nc(-c2ccccc2)c2nc(Nc3ccc4c(c3)CN(C)CC43CC3)ncc2c1=O [Example 172, 6-allyl-2-[(2′-methyl-2′,3′-dihydro-1′H-spiro[cyclopropane-1,4′-isoquinolin]-7′-yl)amino]-8-phenylpyrimido[4,5-d]pyridazin-5(6H)-one]",8.60
13,"Cc1ccccc1-n1nc(-c2ccccc2)c2nc(Nc3ccc4c(c3)CN(C)CC43CC3)ncc2c1=O [Example 173, 2-[(2′-methyl-2′,3′-dihydro-1′H-spiro[cyclopropane-1,4′-isoquinolin]-7′-yl)amino]-6-(2-methylphenyl)-8-phenylpyrimido[4,5-d]pyridazin-5(6H)-one]",9.40
14,"COc1cc(Nc2ncc3c(=O)n(-c4ccccc4Cl)nc(-c4cccs4)c3n2)ccc1N1CCN(C(C)C)CC1 [Example 174, 6-(2-chlorophenyl)-2-{[4-(4-isopropylpiperazin-1-yl)-3-methoxyphenyl]amino}-8-(2-thienyl)pyrimido[4,5-d]pyridazin-5(6H)-one]",10.00
15,"CC(=O)c1cccc(-c2nn(-c3c(Cl)cccc3Cl)c(=O)c3cnc(Nc4ccc(N5CCN(C)CC5)cc4)nc23)n1 [Example 175, 8-(6-acetylpyridin-2-yl)-6-(2,6-dichlorophenyl)-2-{[4-(4-methylpiperazin-1-yl)phenyl]amino}pyrimido[4,5-d]pyridazin-5(6H)-one]",9.70
16,"CCC(O)(CC)c1cccc(-c2nn(-c3c(Cl)cccc3Cl)c(=O)c3cnc(Nc4ccc(N5CCN(C)CC5)cc4)nc23)n1 [Example 176, 6-(2,6-dichlorophenyl)-8-[6-(3-hydroxypentan-3-yl)pyridin-2-yl]-2-{[4-(4-methylpiperazin-1-yl)phenyl]amino}pyrimido[4,5-d]pyridazin-5(6H)-one]",7.44
17,"CN1CCN(c2ccc(Nc3ncc4c(=O)n(-c5ccccc5)nc(-c5ccncn5)c4n3)cc2)CC1 [Example 177, 2-{[4-(4-methylpiperazin-1-yl)phenyl]amino}-6-phenyl-8-(pyrimidin-4-yl)pyrimido[4,5-d]pyridazin-5(6H)-one]",7.72
